Measured values taken from US6872690B2, “Herbicidal 2-alkynyl-pyri (mi) dines” (WYETH, priority 2001, dated 2005).

Key:
Type in all cases: in vivo
Triticum aestivum [1] = assay: Pre-emergence test; conditions: 3 weeks after treatment
Procedure: (§1) To evaluate their herbicidal activity, compounds according to the invention are tested using a representative range of plants:
(§2) The pre-emergence tests involve spraying a liquid formulation of the compound onto the soil in which the seeds of the plant species mentioned above has recently been sown.
(§3) The soil used in the tests is a prepared horticultural loam. The formulations used in the tests are prepared from solutions of the test compounds in acetone containing 0.4% by weight of an alkyl-phenol/ethylene oxide condensate available under the trade mark TRITON X-155. These acetone solutions are diluted with water and the resulting formulations applied at dosage levels corresponding to 0.013 kg, 0.025 kg, 0.100 kg or 0.400 kg of active material per hectare in a volume equivalent to 900 litres per hectare. In these tests untreated sown soil are used as controls. From 2 to 4 weeks after treatment, the tests are terminated and each pot is examined and rated according to the rating system set forth below: […]

Zea mays [2] = assay: Pre-emergence test; conditions: 3 weeks after treatment
Procedure: as §1, §2, §3

Abutilon theophrasti = assay: Post-emergence herbicidal activity test; conditions: 2-4 weeks after treatment
Procedure: as §1
(§4) These acetone solutions are diluted with water and the resulting formulations applied at dosage levels equivalent of about 0.025 to 0. 4 kg per hectare of test compound per pot. After spraying the plants are placed on greenhouse benches and are cared for in the usual manner, commensurate with conventional greenhouse practices. From 2 to 4 weeks after treatment, the seedling plants are examined and rated according to the rating system provided above.

Alopecurus myosuroides = assay: Post-emergence herbicidal activity test; conditions: 2-4 weeks after treatment
Procedure: as §1, §4

Cassia obtusifolia = assay: Post-emergence herbicidal activity test; conditions: 2-4 weeks after treatment
Procedure: as §1, §4

Digitaria sanguinalis = assay: Post-emergence herbicidal activity test; conditions: 2-4 weeks after treatment
Procedure: as §1, §4

Echinochloa crus-galli = assay: Post-emergence herbicidal activity test; conditions: 2-4 weeks after treatment
Procedure: as §1, §4

Galium aparine = assay: Post-emergence herbicidal activity test; conditions: 2-4 weeks after treatment
Procedure: as §1, §4

Glycine max = assay: Post-emergence herbicidal activity test; conditions: 2-4 weeks after treatment
Procedure: as §1, §4

Ipomoea hederacea = assay: Post-emergence herbicidal activity test; conditions: 2-4 weeks after treatment
Procedure: as §1, §4

Matricaria inodora = assay: Post-emergence herbicidal activity test; conditions: 2-4 weeks after treatment
Procedure: as §1, §4

Orysa sativa = assay: Post-emergence herbicidal activity test; conditions: 2-4 weeks after treatment
Procedure: as §1, §4

Setaria viridis = assay: Post-emergence herbicidal activity test; conditions: 2-4 weeks after treatment
Procedure: as §1, §4

Stellaria media = assay: Post-emergence herbicidal activity test; conditions: 2-4 weeks after treatment
Procedure: as §1, §4

Triticum aestivum [3] = assay: Post-emergence herbicidal activity test; conditions: 2-4 weeks after treatment
Procedure: as §1, §4

Zea mays [4] = assay: Post-emergence herbicidal activity test; conditions: 2-4 weeks after treatment
Procedure: as §1, §4

Cc1cc(C#Cc2ccccc2)nc(Oc2cc(C(F)(F)F)nn2C)c1 [Example 1, 4-methyl-6-phenylethynyl-2-(1-methyl-3-trifluoromethylpyrazol-5-yloxy)pyridine]
1 (1-Trace effect): Assessment (pre-emergence application) ZEAMX (Zea mays [2]; 0.013 kg/ha)
7 (7-Good herbicidal effect): Post-emergence application ALOMY (Alopecurus myosuroides; 0.100 kg/ha) | Post-emergence application CASOB (Cassia obtusifolia; 0.100 kg/ha) | Post-emergence application CASOB (Cassia obtusifolia; 0.400 kg/ha) | Post-emergence application DIGSA (Digitaria sanguinalis; 0.100 kg/ha) | Post-emergence application DIGSA (Digitaria sanguinalis; 0.400 kg/ha) | Post-emergence application ECHCG (Echinochloa crus-galli; 0.100 kg/ha) | Post-emergence application SETVI (Setaria viridis; 0.025 kg/ha) | Post-emergence application STEME (Stellaria media; 0.400 kg/ha)
6 (6-Herbicidal effect): Post-emergence application ABUTH (Abutilon theophrasti; 0.400 kg/ha) | Post-emergence application CASOB (Cassia obtusifolia; 0.025 kg/ha) | Post-emergence application GALAP (Galium aparine; 0.025 kg/ha) | Post-emergence application GALAP (Galium aparine; 0.100 kg/ha) | Post-emergence application GALAP (Galium aparine; 0.400 kg/ha) | Post-emergence application GLXMA (Glycine max; 0.100 kg/ha) | Post-emergence application GLXMA (Glycine max; 0.400 kg/ha) | Post-emergence application IPOHE (Ipomoea hederacea; 0.025 kg/ha) | Post-emergence application MATIN (Matricaria inodora; 0.400 kg/ha) | Post-emergence application STEME (Stellaria media; 0.100 kg/ha)
5 (5-Definite injury): Post-emergence application ABUTH (Abutilon theophrasti; 0.100 kg/ha) | Post-emergence application GLXMA (Glycine max; 0.025 kg/ha) | Post-emergence application MATIN (Matricaria inodora; 0.100 kg/ha) | Post-emergence application STEME (Stellaria media; 0.025 kg/ha) | Post-emergence application ZEAMX (Zea mays [4]; 0.400 kg/ha)
8 (8-Approaching complete kill): Post-emergence application ALOMY (Alopecurus myosuroides; 0.400 kg/ha) | Post-emergence application ECHCG (Echinochloa crus-galli; 0.400 kg/ha) | Post-emergence application IPOHE (Ipomoea hederacea; 0.400 kg/ha) | Post-emergence application SETVI (Setaria viridis; 0.100 kg/ha) | Post-emergence application SETVI (Setaria viridis; 0.400 kg/ha)
4 (4-Injury): Assessment (pre-emergence application) ZEAMX (Zea mays [2]; 0.400 kg/ha) | Post-emergence application ABUTH (Abutilon theophrasti; 0.025 kg/ha) | Post-emergence application ALOMY (Alopecurus myosuroides; 0.025 kg/ha) | Post-emergence application ECHCG (Echinochloa crus-galli; 0.025 kg/ha) | Post-emergence application MATIN (Matricaria inodora; 0.025 kg/ha) | Post-emergence application ORYSA (Orysa sativa; 0.400 kg/ha) | Post-emergence application ZEAMX (Zea mays [4]; 0.100 kg/ha)
3 (3-Moderate effect): Assessment (pre-emergence application) TRZWA (Triticum aestivum [1]; 0.400 kg/ha) | Post-emergence application DIGSA (Digitaria sanguinalis; 0.025 kg/ha) | Post-emergence application ORYSA (Orysa sativa; 0.100 kg/ha) | Post-emergence application TRZWA (Triticum aestivum [3]; 0.100 kg/ha) | Post-emergence application TRZWA (Triticum aestivum [3]; 0.400 kg/ha)
2 (2-Slight effect): Assessment (pre-emergence application) TRZWA (Triticum aestivum [1]; 0.100 kg/ha) | Assessment (pre-emergence application) ZEAMX (Zea mays [2]; 0.025 kg/ha) | Assessment (pre-emergence application) ZEAMX (Zea mays [2]; 0.100 kg/ha) | Post-emergence application ORYSA (Orysa sativa; 0.025 kg/ha) | Post-emergence application TRZWA (Triticum aestivum [3]; 0.025 kg/ha) | Post-emergence application ZEAMX (Zea mays [4]; 0.025 kg/ha)
